According to patent US20250032483A1, “COMPOSITIONS AND METHODS FOR TREATING PAIN” (ICAHN SCHOOL OF MEDICINE AT MOUNT SINAI, priority 2021, published 2025):
Entries after “also recorded” stand apart in the source; their conditions may differ.

Key:
paw incision model mice [1] = test: Von Frey assay, paw incision model (pre-treatment); format: in vivo; conditions: pre-treatment 5 mg/kg i.p. for seven days; no drug after incision; vs saline
Protocol: (§1) The inventors also tested whether YM155 could be used to prophylactically reduce pain experienced after acute post-operative injuries. For this, the inventors used the paw incision model and pre-treated animals at a dose of 5 mg/kg i.p, for seven days. Animals were not treated with drug after the incision.
(§2) For studies using models of peripheral inflammation, two-to three-month old mice received 30 μL left hindpaw injections of Complete Freund's Adjuvant (CFA: diluted 1:1 in saline) or IFNB injections (300 U per 25 μL), as described previously. For studies using the post-operative incision model, two-to three-month-old mice received an incision from the posterior plantar surface of the hindpaw to the middle of the paw pads, in which dermis and superficial muscle was cut and dermis was sutured afterwards. […]
(§3) Hamsters/mice were placed on a raised grid platform in plastic containers and were allowed to habituate to their environment for a minimum of 10 minutes. Afterwards, filaments of ascending forces were applied to the left hindpaw and responses were recorded. […] Progression to the next filament was determined by recording of positive or negative responses for three out of five applications with each filament. […]

paw incision model mice [2] = test: Locomotor activity after paw incision; format: in vivo; conditions: Day 1 post-paw incision; YM155 vs saline
Protocol: as §1

[3] = intravenously-treated mice; cited from earlier work
[4] = system: CFA model of peripheral inflammation in female mice; test: Hargreaves' thermal beam assay, CFA model; format: in vivo; conditions: 5 mg/kg i.p. QD, vs saline
Protocol: (§4) The inventors used the CFA model of peripheral inflammation in female mice to determine the impact of ILF3 inhibition in sensory hypersensitivity behaviors associated with inflammatory pain states. […] To identify any immediate analgesic effects of YM155 under local, peripheral inflammation conditions, the inventors first tested CFA-injected mice in the Von Frey and Hargreave's assays at 30 minutes post-drug administration.
(§5) The inventors also tested whether YM155 had sustained effects on sensory hypersensitivity after the expected window of activity (approximately 24 hours post-injection, based on a ˜one hour half-life in intravenously-treated mice).
as §2
The CFA model induces thermal hypersensitivity for 10-14 days on average. […] Three measurements were recorded and averaged for each hindpaw, with each measurement taking place at least two minutes apart.

[5] = system: interferon-induced mechanical hypersensitivity in mice; test: Von Frey assay, hindpaw IFNβ injection model; format: in vivo
Text: While the CFA model promotes both peripheral interferon and cytokine signaling. the inventors wanted to investigate the role of ILF3 inhibition in a model of isolated interferon signaling to better understand its role in virus-induced hypersensitivity. For this, the inventors implemented hindpaw interferon β (IFNβ) injections. The inventors compared mechanical thresholds between a group of female mice that received no IFNβ injection and daily saline (Naïve-Saline), a group that received a single IFNβ injection and daily saline (IFNβ-Saline). and a group that received a single IFNβ injection and immediate daily administration of YM155 (5 mg/kg i.p. BID: IFNβ-YM155). […] The inventors therefore performed an experiment in which a Naïve-Saline and IFNβ-Saline group began receiving YM155 (2.5 mg/kg i.p. BID) after mechanical thresholds were taken one day after intraplantar injections. […] ILF3 inhibition is effective at suppressing interferon-induced hypersensitivity in both mouse sexes. […]
as §3

[6] = system: CFA model of peripheral inflammation in female mice; test: Von Frey assay, CFA model; format: in vivo; conditions: 5 mg/kg i.p. QD, vs saline
Protocol: as §4, §5
For studies using models of peripheral inflammation, two-to three-month old mice received 30 μL left hindpaw injections of Complete Freund's Adjuvant (CFA: diluted 1:1 in saline) or IFNB injections (300 U per 25 μL), as described previously. […]
as §3

mice = test: Toxicity observed on dosing in mice; format: in vivo
[7] = Body weight during YM155 administration, CFA model; format: in vivo, mice; conditions: 5 mg/kg i.p. QD; first 9 days of treatment
Protocol: as §5
For studies using models of peripheral inflammation, two-to three-month old mice received 30 μL left hindpaw injections of Complete Freund's Adjuvant (CFA: diluted 1:1 in saline) or IFNB injections (300 U per 25 μL), as described previously. For studies using the post-operative incision model, two-to three-month-old mice received an incision from the posterior plantar surface of the hindpaw to the middle of the paw pads, in which dermis and superficial muscle was cut and dermis was sutured afterwards. CFA and paw incision groups of mice received daily intraperitoneal (i.p.) injections of saline (vehicle) or YM155 (Tocris Biosciences), an Interleukin Enhancer Binding Factor 3 (ILF3) inhibitor (2.5 or 5 mg/kg diluted in saline).

[8] = CFA-injected female mice, 30-60 minutes after administration

## COCCn1c2c([n+](Cc3cnccn3)c1C)C(=O)c1ccccc1C2=O [YM155]
Paw incision model mice [1]
  mechanical hypersensitivity after paw incision: significantly lower mechanical hypersensitivity after paw incision; also recorded: significant reduction in mechanical hypersensitivity
Paw incision model mice [2]
  locomotion / locomotor activity: No differences in locomotion were observed; also recorded: no changes in locomotor activity
[3]
  half-life: one
[4]; CFA mice, ~24 hours post-injection, six consecutive days of administration (PD-D6)
  thermal thresholds / Hargreaves' withdrawal latency, sustained: increased thermal thresholds in a sustained fashion; also recorded: significantly higher withdrawal latency
[4]; [8]
  thermal thresholds / Hargreaves' response times: increased thermal thresholds; also recorded: increased Hargreaves' response times
[5]; female mice, hindpaw IFNβ 300U/25 μL, concurrent YM155 5 mg/kg i.p., days 1 and 3 after IFNβ, 5 mg/kg
  interferon-induced mechanical hypersensitivity (mechanical thresholds): interrupted the onset of interferon-induced mechanical hypersensitivity; also recorded: no change in thresholds
[5]; male mice, 2.5 mg/kg i.p. BID started one day after intraplantar injection, by day three
  mechanical thresholds, IFNβ group: substantial increase in mechanical thresholds
[6]; CFA mice, ~24 hours after administration, PD-D5, PD-D7, PD-D9
  mechanical thresholds (von Frey), sustained: increased mechanical thresholds in a sustained fashion; also recorded: sustained recovery of mechanical thresholds
[6]; [8]
  mechanical (von Frey) thresholds: increased mechanical thresholds; also recorded: increased von Frey thresholds
mice; female mice, 20 mg/kg
  toxicity: lethal toxicity
mice; male mice, 2.5 mg/kg i.p. BID
  toxicity: did not observe toxicity
mice; male mice, 5 mg/kg dose
  toxicity: increased sensitivity to the drug and subsequent toxicity
[7]
  post-CFA weight: No changes in post-CFA weight were observed
